# Biological target: T1, PD-1/PD-L1 (Homo sapiens, UniProt Q9NZQ7)
# T1 construct: made in house; host or cells: HEK293T
# Assay: PD-1/PD-L1 Homogenous Time-Resolved Fluorescence (HTRF) binding assay
# Conditions: PD-L1-His 10 nM, PD-1-Ig 20 nM; value given as range class; read-out: Range or IC50
# Procedure, shortened: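 Compounds are tested for blocking the PD-1/PD-L1 interaction in dPBS supplemented with 0.1% BSA and 0.05% (v/v) Tween-20. Tagged proteins are detected with Eu-cryptate anti-Ig and APC anti-His at 1 and 20 nM final.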
# T1 sequence (Q9NZQ7 with tags, fused parts or gaps): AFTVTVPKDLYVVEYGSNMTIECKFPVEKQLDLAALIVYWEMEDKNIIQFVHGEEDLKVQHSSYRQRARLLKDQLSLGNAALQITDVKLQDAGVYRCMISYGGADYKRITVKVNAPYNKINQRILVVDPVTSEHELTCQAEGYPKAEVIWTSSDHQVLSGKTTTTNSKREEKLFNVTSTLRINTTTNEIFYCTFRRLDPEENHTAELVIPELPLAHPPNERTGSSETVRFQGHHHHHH
row,SMILES,IC50
1,"Cc1c(COc2cc(OCc3cncc(C#N)c3)c(CNC(CO)CO)cc2Cl)cccc1-c1cccc(C(=O)N2CCCC2)c1C [Example 4038, 5-((4-chloro-2-(((1,3-dihydroxypropan-2-yl)amino)methyl)-5-((2,2′-dimethyl-3′-(pyrrolidine-1-carbonyl)-[1,1′-biphenyl]-3-yl)methoxy)phenoxy)methyl)nicotinonitrile]",10 to 100 nM
2,"Cc1c(COc2cc(OCc3cncc(C#N)c3)c(CNC(C)(CO)CO)cc2Cl)cccc1-c1cccc(C(=O)N2CCCC2)c1C [Example 4039, 5-((4-chloro-2-(((1,3-dihydroxy-2-methylpropan-2-yl)amino)methyl)-5-((2,2′-dimethyl-3′-(pyrrolidine-1-carbonyl)-[1,1′-biphenyl]-3-yl)methoxy)phenoxy)methyl)nicotinonitrile]",10 to 100 nM
3,"Cc1c(COc2cc(OCc3cncc(C#N)c3)c(CNC(C)(CO)CO)cc2Cl)cccc1-c1cccc(OCCCN2CCC(CO)(C(=O)O)C2)c1Cl (stereo not shown) [Example 1118, 1-(3-((2-chloro-3′-((2-chloro-5-((5-cyanopyridin-3-yl)methoxy)-4-(((1,3-dihydroxy-2-methylpropan-2-yl)amino)methyl)phenoxy)methyl)-2′-methyl-[1,1′-biphenyl]-3-yl)oxy)propyl)-3-(hydroxymethyl)pyrrolidine-3-carboxylic Acid]",10 to 100 nM
4,"Cc1c(COc2cc(OCc3cncc(C#N)c3)c(CN3CCCC[C@H]3C(=O)Oc3ccc([N+](=O)[O-])cc3)cc2Cl)cccc1-c1cccc(OCCCN2CC[C@@H](O)C2)c1C [Example 2370, 4-nitrophenyl (S)-1-(5-chloro-2-((5-cyanopyridin-3-yl)methoxy)-4-((3′-(3-((R)-3-hydroxypyrrolidin-1-yl)propoxy)-2,2′-dimethyl-[1,1′-biphenyl]-3-yl)methoxy)benzyl)piperidine-2-carboxylate]",10 to 100 nM
5,"CNC(=O)C1CCN(CCCOc2cccc(-c3cccc(COc4cc(OCc5cncc(C#N)c5)c(CN5CCCC[C@H]5C(=O)O)cc4Cl)c3C)c2Cl)CC1 [Example 1077, (S)-1-(5-chloro-4-((2′-chloro-2-methyl-3′-(3-(4-(methylcarbamoyl)piperidin-1-yl)propoxy)-[1,1′-biphenyl]-3-yl)methoxy)-2-((5-cyanopyridin-3-yl)methoxy)benzyl)piperidine-2-carboxylic Acid]",0.21 to 10 nM
6,"Cc1c(OCCCN2CC[C@@H](O)C2)cccc1-c1cccc(COc2cc(OCc3cncc(C#N)c3)c(CN(CCc3cncc(C#N)c3)C(CO)CO)cc2Cl)c1Cl [Example 2312, (R)-5-(2-((5-chloro-4-((2-chloro-3′-(3-(3-hydroxypyrrolidin-1-yl)propoxy)-2′-methyl-[1,1′-biphenyl]-3-yl)methoxy)-2-((5-cyanopyridin-3-yl)methoxy)benzyl)(1,3-dihydroxypropan-2-yl)amino)ethyl)nicotinonitrile]",0.21 to 10 nM
7,"Cc1c(COc2cc(OCc3cncc(C#N)c3)c(CN(CCO)CCO)c(C)c2Cl)cccc1-c1cccc(OCCCN2CC[C@@H](O)C2)c1C [Example 4105, (R)-5-((2-((bis(2-hydroxyethyl)amino)methyl)-4-chloro-5-((3′-(3-(3-hydroxypyrrolidin-1-yl)propoxy)-2,2′-dimethyl-[1,1′-biphenyl]-3-yl)methoxy)-3-methylphenoxy)methyl)nicotinonitrile]",0.21 to 10 nM
8,"Cc1c(COCCN2CC[C@@H](O)C2)cccc1-c1cccc(COc2cc(OCc3cncc(C#N)c3)c(CN3CCCC[C@H]3C(=O)O)cc2Cl)c1C [Example 4126, (S)-1-(5-chloro-2-((5-cyanopyridin-3-yl)methoxy)-4-((3′-((2-((R)-3-hydroxypyrrolidin-1-yl)ethoxy)methyl)-2,2′-dimethyl-[1,1′-biphenyl]-3-yl)methoxy)benzyl)piperidine-2-carboxylic Acid]",0.21 to 10 nM
9,"Cc1c(OCCCN2CC[C@@H](O)C2)cccc1-c1cccc(COc2cc(OCC3CC3)c(CNC(CO)CO)cc2Cl)c1Cl [Example 2319, (R)-2-((5-chloro-4-((2-chloro-3′-(3-(3-hydroxypyrrolidin-1-yl)propoxy)-2′-methyl-[1,1′-biphenyl]-3-yl)methoxy)-2-(cyclopropylmethoxy)benzyl)amino)propane-1,3-diol]",0.21 to 10 nM

# Further lines, results first:
row,IC50,SMILES
1,0.21 to 10 nM,"CC(CO)(CO)NCc1cc(Cl)c(OCc2cccc(-c3cccc(OCCCN4CC[C@@H](O)C4)c3Cl)c2Cl)cc1OCc1cc(C#N)ccc1F [Example 2055, (R)-3-((4-chloro-5-((2,2′-dichloro-3′-(3-(3-hydroxypyrrolidin-1-yl)propoxy)-[1,1′-biphenyl]-3-yl)methoxy)-2-(((1,3-dihydroxy-2-methylpropan-2-yl)amino)methyl)phenoxy)methyl)-4-fluorobenzonitrile]"
2,0.21 to 10 nM,"Cc1cc(OCc2cccc(-c3cccc(OCCCN4CC[C@@H](O)C4)c3C)c2C)cc(OCc2cncc(C#N)c2)c1CN(CCO)CCO [Example 4090, (R)-5-((2-((bis(2-hydroxyethyl)amino)methyl)-5-((3′-(3-(3-hydroxypyrrolidin-1-yl)propoxy)-2,2′-dimethyl-[1,1′-biphenyl]-3-yl)methoxy)-3-methylphenoxy)methyl)nicotinonitrile]"
3,0.21 to 10 nM,"Cc1c(COc2cc(OCc3cncc(C#N)c3)c(CNC[C@H](O)CO)cc2Cl)cccc1-c1cccc(OCCCNC[C@H](O)CO)c1Cl [Example 2003, 5-((4-chloro-5-((2′-chloro-3′-(3-(((S)-2,3-dihydroxypropyl)amino)propoxy)-2-methyl-[1,1′-biphenyl]-3-yl)methoxy)-2-((((S)-2,3-dihydroxypropyl)amino)methyl)phenoxy)methyl)nicotinonitrile]"
4,0.21 to 10 nM,"Cc1c(COc2cc(OCc3cncc(C#N)c3)c(CNC(CO)CO)cc2Cl)cccc1-c1cccc(OCCCN2CC[C@@H](O)C2)c1Cl [Example 2035, (R)-5-((4-chloro-5-((2′-chloro-3′-(3-(3-hydroxypyrrolidin-1-yl)propoxy)-2-methyl-[1,1′-biphenyl]-3-yl)methoxy)-2-(((1,3-dihydroxypropan-2-yl)amino)methyl)phenoxy)methyl)nicotinonitrile]"
5,0.21 to 10 nM,"Cc1c(COc2cc(OCc3cncc(C#N)c3)c(CN[C@@H](CCCNC(=N)N)C(=O)O)cc2Cl)cccc1-c1cccc(OCCCN2CCC(O)C2)c1 (stereo in doubt) [Example 3002, (S)-2-((5-chloro-2-((5-cyanopyridin-3-yl)methoxy)-4-((3′-(3-((R)-3-hydroxypyrrolidin-1-yl)propoxy)-2-methyl-[1,1′-biphenyl]-3-yl)methoxy)benzyl)amino)-5-guanidinopentanoic Acid]"
6,0.21 to 10 nM,"Cc1c(COc2cc(OCc3cncc(C#N)c3)c(CNC(C)(CO)CO)c(C)c2Cl)cccc1-c1cccc(OCCCN2CC[C@@H](O)C2)c1C [Example 4103, (R)-5-((4-chloro-2-(((1,3-dihydroxy-2-methylpropan-2-yl)amino)methyl)-5-((3′-(3-(3-hydroxypyrrolidin-1-yl)propoxy)-2,2′-dimethyl-[1,1′-biphenyl]-3-yl)methoxy)-3-methylphenoxy)methyl)nicotinonitrile]"
7,0.21 to 10 nM,"CC(=O)N[C@@H]1CCN(CCCOc2cccc(-c3cccc(COc4cc(OCc5cncc(C#N)c5)c(CO)cc4Cl)c3C)c2C)C1 [Example 2276, N-((3R)-1-(3-(3′-((2-chloro-5-((5-cyanopyridin-3-yl)methoxy)-4-(hydroxymethyl)phenoxy)methyl)-2,2′-dimethylbiphenyl-3-yloxy)propyl)pyrrolidin-3-yl)acetamide]"

# Reference: patent US10745382B2 (BRISTOL-MYERS SQUIBB COMPANY, priority 2015, dated 2020)
